Source: US10065928B2, “Quinolinone compound and use thereof” (Sunshine Lake Pharma Co., Ltd., priority 2014, dated 2018)

Experiments:
[1] = test system: erythropoietin (EPO) production in Hep3B cells; experiment: Activity in inducing erythropoietin (EPO) production in vitro, Hep3B cells, EPO ELISA; assay type: cell-based; details: Homo sapiens, 24 h, EPO in supernatant by ELISA
Method: The activities of compounds of the invention in inducing erythropoietin (EPO) production were assessed by using human live cancer cell strain Hep3B (ATCC: American type culture collection, Manassas, Va.). Hep3B cells seeded in a 96-well plate with a density of 2.5×10^4 cells/well were cultivated overnight in DMEM culture medium (Dulbecco's Modified Eagle's Medium) at 37° C. in the presence of 10% fetal bovine serum (FBS). The next day, the supernatant liquid of culture medium was abandoned by suction, and to the residue was added fresh DMEM (containing 0.5% DMSO, 0.5% FBS) containing compound of the invention with a series of concentrations (0.31160.00 μM) or containing solvent used for comparison. The cells were cultivated at 37° C. for 24 h. The supernatant liquid was collected and the EPO concentration of the supernatant was quantified by using human EPO ELISA kit (Abcam). The activity of each compound in inducing erythropoietin (EPO) production was represented by half maximal effective concentration (EC50).

[2] = Pharmacokinetic assay in male SD rats (iv and oral); assay type: in vivo; details: for F: po 5 mg/kg vs iv 1 mg/kg; for AUC(0-t) / Cmax / Tmax / clearance / half-life / Vd: rat, plasma; for Vd: read-out: Vss
Method: Preparation of test compound solutions: the test compound solution was prepared for oral and intravenous administration by using 5% DMSO, 5% Solutol HS 15 and 90% normal saline.
Male SD rats weighing 190-250 g were randomly divided into two groups, and each group had three rats; one group was administered with test compound at a dose of 1.0 mg/kg by intravenous injection, the other group was administered with test compound at a dose of 5.0 mg/kg by oral. After administering, blood samples were collected at time points of 0.0833, 0.25, 0.5, 1.0, 2.0, 4.0, 7.0 and 24 h. Standard curve was plotted based on concentrations of the samples in a suitable range, and the concentrations of test compounds in plasma samples were determined by using AB SCIEX API4000 LC-MS/MS in MRM mode. Pharmacokinetic parameters were calculated according to drug concentration−time curve using a noncompartmental method with WinNonLin 6.3 software.

| EC50 [1] | F [2] | AUC(0-t) ([2]; iv, 1 mg/kg) | Cmax ([2]; iv, 1 mg/kg) | Tmax ([2]; iv, 1 mg/kg) | clearance ([2]; iv, 1 mg/kg) | half-life ([2]; iv, 1 mg/kg) | Vd ([2]; iv, 1 mg/kg) | AUC(0-t) ([2]; po, 5 mg/kg) | Cmax ([2]; po, 5 mg/kg) | Tmax ([2]; po, 5 mg/kg) | half-life ([2]; po, 5 mg/kg) | Compound |
| --- | --- | --- | --- | --- | --- | --- | --- | --- | --- | --- | --- | --- |
| 5.35 µM | 81.5% | 9340 ng·h/mL | 8910 ng/mL | 4.98 min | 1.77 mL/min/kg | 467 min | 0.234 L/kg | 38400 ng·h/mL | 18400 ng/mL | 40 min | 252 min | Cn1c(=O)c(C(=O)NCC(=O)O)c(O)c2ccc(Oc3ccccc3)cc21 [Example 1, 2-(4-hydroxy-1-methyl-2-oxo-7-phenoxy-1,2-dihydroquinoline-3-carboxamido)acetic acid] |
| 7.1 µM | 94.6% | 13100 ng·h/mL | 8480 ng/mL | 4.98 min | 1.32 mL/min/kg | 57.5 min | 0.107 L/kg | 57000 ng·h/mL | 12300 ng/mL | 70.2 min | 254 min | Cn1c(=O)c(C(=O)NCC(=O)O)c(O)c2ccc(Oc3ccc(Cl)cc3)cc21 [Example 13, 2-(7-(4-chlorophenoxy)-4-hydroxy-1-methyl-2-oxo-1,2-dihydroquinoline-3-carboxamido)acetic acid] |
| 4.18 µM | 108.6% | 10800 ng·h/mL | 10100 ng/mL | 4.98 min | 1.56 mL/min/kg | 57.5 min | 0.146 L/kg | 58700 ng·h/mL | 10700 ng/mL | 50 min | 167 min | Cn1c(=O)c(C(=O)NCC(=O)O)c(O)c2ccc(Oc3cc(Cl)ccc3F)cc21 [Example 22, 2-(7-(5-chloro-2-fluorophenoxy)-4-hydroxy-1-methyl-2-oxo-1,2-dihydroquinoline-3-carboxamido)acetic acid] |
| 1.51 µM | 107.8% | 6200 ng·h/mL | 4170 ng/mL | 4.98 min | 2.67 mL/min/kg | 59.4 min | 0.217 L/kg | 33300 ng·h/mL | 11700 ng/mL | 55 min | 106 min | Cn1c(=O)c(C(=O)NCC(=O)O)c(O)c2ccc(Oc3ccc(F)cc3Cl)cc21 [Example 28, 2-(7-(2-chloro-4-fluorophenoxy)-4-hydroxy-1-methyl-2-oxo-1,2-dihydroquinoline-3-carboxamido)acetic acid] |
| 4.89 µM | – | – | – | – | – | – | – | – | – | – | – | Cn1c(=O)c(C(=O)NCC(=O)O)c(O)c2cc(F)c(Oc3ccccc3)cc21 [Example 39, 2-(6-fluoro-4-hydroxy-1-methyl-2-oxo-7-phenoxy-1,2-dihydroquinoline-3-carboxamido)acetic acid] |
| 4.06 µM | – | – | – | – | – | – | – | – | – | – | – | Cn1c(=O)c(C(=O)NCC(=O)O)c(O)c2ccc(Oc3ccccc3OC(F)(F)F)cc21 [Example 40, 2-(4-hydroxy-1-methyl-2-oxo-7-(2-(trifluoromethoxy)phenoxy)-1,2-dihydroquinoline-3-carboxamido)acetic acid] |
| 3.92 µM | 90.7% | 10200 ng·h/mL | 6400 ng/mL | 4.98 min | 1.66 mL/min/kg | 63.6 min | 0.144 L/kg | 46200 ng·h/mL | 11500 ng/mL | 30 min | 158 min | Cn1c(=O)c(C(=O)NCC(=O)O)c(O)c2ccc(Oc3ccc(F)cc3)cc21 [Example 47, 2-(7-(4-fluorophenoxy)-4-hydroxy-1-methyl-2-oxo-1,2-dihydroquinoline-3-carboxamido)acetic acid] |
| 6.6 µM | – | – | – | – | – | – | – | – | – | – | – | Cn1c(=O)c(C(=O)NCC(=O)O)c(O)c2ccc(Oc3ccccc3Cl)cc21 [Example 48, 2-(7-(2-chlorophenoxy)-4-hydroxy-1-methyl-2-oxo-1,2-dihydroquinoline-3-carboxamido)acetic acid] |

Second part, the molecule before the results:

| Compound | EC50 [1] | F [2] | AUC(0-t) ([2]; iv, 1 mg/kg) | Cmax ([2]; iv, 1 mg/kg) | Tmax ([2]; iv, 1 mg/kg) | clearance ([2]; iv, 1 mg/kg) | half-life ([2]; iv, 1 mg/kg) | Vd ([2]; iv, 1 mg/kg) | AUC(0-t) ([2]; po, 5 mg/kg) | Cmax ([2]; po, 5 mg/kg) | Tmax ([2]; po, 5 mg/kg) | half-life ([2]; po, 5 mg/kg) |
| --- | --- | --- | --- | --- | --- | --- | --- | --- | --- | --- | --- | --- |
| O=C(O)CNC(=O)c1c(O)c2ccc(Oc3ccccc3)cc2n(CC2CC2)c1=O [Example 2, 2-(1-(cyclopropylmethyl)-4-hydroxy-2-oxo-7-phenoxy-1,2-dihydroquinoline-3-carboxamido)acetic acid] | 5 µM | 100.4% | 20200 ng·h/mL | 7190 ng/mL | 13.3 min | 0.833 mL/min/kg | 224 min | 0.159 L/kg | 101000 ng·h/mL | 13200 ng/mL | 130 min | 239 min |
| Cn1c(=O)c(C(=O)NCC(=O)O)c(O)c2ccc(Oc3cc(F)ccc3F)cc21 [Example 19, 2-(7-(2,5-difluorophenoxy)-4-hydroxy-1-methyl-2-oxo-1,2-dihydroquinoline-3-carboxamido)acetic acid] | 2.26 µM | 98.7% | 8260 ng·h/mL | 6080 ng/mL | 4.98 min | 2.06 mL/min/kg | 65.4 min | 0.164 L/kg | 41000 ng·h/mL | 9560 ng/mL | 30 min | 84 min |
| COc1cccc(Oc2ccc3c(O)c(C(=O)NCC(=O)O)c(=O)n(C)c3c2)c1 [Example 37, 2-(4-hydroxy-7-(3-methoxyphenoxy)-1-methyl-2-oxo-1,2-dihydroquinoline-3-carboxamido)acetic acid] | 6.26 µM | – | – | – | – | – | – | – | – | – | – | – |
| COc1ccccc1Oc1ccc2c(O)c(C(=O)NCC(=O)O)c(=O)n(C)c2c1 [Example 38, 2-(4-hydroxy-7-(2-methoxyphenoxy)-1-methyl-2-oxo-1,2-dihydroquinoline-3-carboxamido)acetic acid] | 8.85 µM | – | – | – | – | – | – | – | – | – | – | – |
| O=C(O)CNC(=O)c1c(O)c2ccc(Oc3ccccc3)cc2n(CCC2CC2)c1=O [Example 42, 2-(1-(cyclopropylethyl)-4-hydroxy-2-oxo-7-phenoxy-1,2-dihydroquinoline-3-carboxamido)acetic acid] | 3.34 µM | – | – | – | – | – | – | – | – | – | – | – |
| Cn1c(=O)c(C(=O)NCC(=O)O)c(O)c2ccc(Oc3ccncc3)cc21 [Example 43, 2-(4-hydroxy-1-methyl-2-oxo-7-(pyridin-4-yloxy)-1,2-dihydroquinoline-3-carboxamido)acetic acid] | 28.9 µM | – | – | – | – | – | – | – | – | – | – | – |
| Cn1c(=O)c(C(=O)NCC(=O)O)c(O)c2ccc(Oc3ccccc3F)cc21 [Example 45, 2-(7-(2-fluorophenoxy)-4-hydroxy-1-methyl-2-oxo-1,2-dihydroquinoline-3-carboxamido)acetic acid] | 6.02 µM | – | – | – | – | – | – | – | – | – | – | – |
| Cn1c(=O)c(C(=O)NCC(=O)O)c(O)c2ccc(Oc3cccc(F)c3)cc21 [Example 46, 2-(7-(3-fluorophenoxy)-4-hydroxy-1-methyl-2-oxo-1,2-dihydroquinoline-3-carboxamido)acetic acid] | 3.61 µM | – | – | – | – | – | – | – | – | – | – | – |
